Laboratory results reported in patent US20240317752A1, “6-SUBSTITUTED-9H-PURINE DERIVATIVES AND RELATED USES” (Black Diamond Therapeutics, Inc., priority 2021, published 2024).

These compounds were tested against T1, BaF3 BRAF-KIAA1549 fusion cells (Homo sapiens, UniProt P15056) (assay: BaF3 BRAF-KIAA1549 fusion cell proliferation assay (CellTiterGlo)). Conditions: 96 hours incubation, potency code.
T1 construct: The BRAF-KIAA1549 fusion mutant was subcloned into pMXs-IRES-Blasticidin (RTV-016, Cell Biolabs, San Diego, CA); fused on or other part: Q9HCM3 (UPF0606 protein KIAA1549)
T1 sequence (P15056 whole entry, change not shown, the tested form may be a part): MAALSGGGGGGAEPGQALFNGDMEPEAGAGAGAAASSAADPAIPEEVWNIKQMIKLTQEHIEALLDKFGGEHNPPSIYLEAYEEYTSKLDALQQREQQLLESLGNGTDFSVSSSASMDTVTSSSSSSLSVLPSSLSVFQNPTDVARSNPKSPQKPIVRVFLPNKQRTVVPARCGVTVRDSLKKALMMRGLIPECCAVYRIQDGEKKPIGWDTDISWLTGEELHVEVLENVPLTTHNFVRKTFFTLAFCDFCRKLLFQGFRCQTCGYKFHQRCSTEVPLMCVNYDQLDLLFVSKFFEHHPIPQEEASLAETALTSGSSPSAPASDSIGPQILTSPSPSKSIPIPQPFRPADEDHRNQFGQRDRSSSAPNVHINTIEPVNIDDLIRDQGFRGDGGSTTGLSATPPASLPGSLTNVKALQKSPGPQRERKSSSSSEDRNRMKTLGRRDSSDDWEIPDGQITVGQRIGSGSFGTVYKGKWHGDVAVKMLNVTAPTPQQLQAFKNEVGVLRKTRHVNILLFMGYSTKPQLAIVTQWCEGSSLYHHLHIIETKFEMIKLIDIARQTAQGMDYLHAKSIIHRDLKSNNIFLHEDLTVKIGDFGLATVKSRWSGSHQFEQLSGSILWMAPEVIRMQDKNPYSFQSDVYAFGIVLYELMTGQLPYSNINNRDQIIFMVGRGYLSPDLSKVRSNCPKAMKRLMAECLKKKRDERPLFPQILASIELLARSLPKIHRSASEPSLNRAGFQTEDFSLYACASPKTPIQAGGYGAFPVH
Format: cell-based
How it was run: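 BaF3 cells stably transduced with a BRAF-KIAA1549 fusion, blasticidin-selected and growing without IL-3, were treated with compound for 96 h in RPMI/10% heat-inactivated FBS. Viability read as ATP content by CellTiterGlo luminescence, normalised to DMSO-treated cells. IC50 by Levenberg-Marquardt fit.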

SMILES | GI50 [nM]
COc1c(C(F)(F)F)ccnc1C(=O)Nc1ccc(C)c(Nc2ncccc2-c2ncnc3[nH]cnc23)c1 [IA-101, N-(3-(3-(9H-purin-6-yl)pyridin-2-ylamino)-4-methylphenyl)-3-methoxy-4-(trifluoromethyl)picolinamide] | < 20
Cc1ccc(NC(=O)CC2CCCOCC2)cc1Nc1ncccc1-c1ncnc2[nH]cnc12 (stereo not shown) [IA-102, N-(3-(3-(9H-purin-6-yl)pyridin-2-ylamino)-4-methylphenyl)-2-(oxepan-4-yl)acetamide] | 100 to 500
Cc1ccc(NC(=O)CN2CCC[C@H](C(F)(F)F)C2)cc1Nc1ncccc1-c1ncnc2[nH]cnc12 [IA-103, (S)—N-(3-(3-(9H-purin-6-yl)pyridin-2-ylamino)-4-methylphenyl)-2-(3-(trifluoromethyl)piperidin-1-yl)acetamide] | < 20
Cc1ccc(NC(=O)c2cc(C(F)(F)F)c(OCCO)cn2)cc1Nc1ncccc1-c1ncnc2[nH]cnc12 [IA-104, N-(3-(3-(9H-purin-6-yl)pyridin-2-ylamino)-4-methylphenyl)-5-(2-hydroxyethoxy)-4-(trifluoromethyl)picolinamide] | < 20
Cc1ccc(NC(=O)CC2CC(C(F)(F)F)CCO2)cc1Nc1ncccc1-c1ncnc2[nH]cnc12 (stereo not shown) [IA-105, N-(3-((3-(9H-purin-6-yl)pyridin-2-yl)amino)-4-methylphenyl)-2-(4-(trifluoromethyl)tetrahydro-2H-pyran-2-yl)acetamide] | 20 to 100
Cc1ccc(NC(=O)CN2CCC[C@@H](C(F)(F)F)C2)cc1Nc1ncccc1-c1ncnc2[nH]cnc12 [IA-107, (R)—N-(3-((3-(9H-purin-6-yl)pyridin-2-yl)amino)-4-methylphenyl)-2-(3-(trifluoromethyl)piperidin-1-yl)acetamide] | < 20
Cc1ccc(NC(=O)C23CC(C(F)(F)F)(CO2)C3)cc1Nc1ncccc1-c1ncnc2[nH]cnc12 [IA-108, N-(3-(3-(9H-purin-6-yl)pyridin-2-ylamino)-4-methylphenyl)-4-(trifluoromethyl)-2-oxabicyclo[2.1.1]hexane-1-carboxamide] | 100 to 500
Cc1ccc(NC(=O)CN2CC[C@H](C(F)(F)F)C2)cc1Nc1ncccc1-c1ncnc2[nH]cnc12 [IA-109, (S)—N-(3-((3-(9H-purin-6-yl)pyridin-2-yl)amino)-4-methylphenyl)-2-(3-(trifluoromethyl)pyrrolidin-1-yl)acetamide] | < 20
Cc1ccc(NC(=O)CN2CCCCCC2)cc1Nc1ncccc1-c1ncnc2[nH]cnc12 [IA-110, N-(3-((3-(9H-purin-6-yl)pyridin-2-yl)amino)-4-methylphenyl)-2-(azepan-1-yl)acetamide] | 20 to 100
Cc1ccc(NC(=O)CN2CC[C@@H](C(F)(F)F)C2)cc1Nc1ncccc1-c1ncnc2[nH]cnc12 [IA-111, (R)—N-(3-(3-(9H-purin-6-yl)pyridin-2-ylamino)-4-methylphenyl)-2-(3-(trifluoromethyl)pyrrolidin-1-yl)acetamide] | < 20
Cc1ccc(NC(=O)CN2CCCCC(F)(F)C2)cc1Nc1ncccc1-c1ncnc2[nH]cnc12 [IA-112, N-(3-(3-(9H-purin-6-yl)pyridin-2-ylamino)-4-methylphenyl)-2-(3,3-difluoroazepan-1-yl)acetamide] | 100 to 500
Cc1ccc(NC(=O)CC2CCCCCC2)cc1Nc1ncccc1-c1ncnc2[nH]cnc12 [IA-113, N-(3-((3-(9H-purin-6-yl)pyridin-2-yl)amino)-4-methylphenyl)-2-cycloheptylacetamide] | < 20
COc1nc2c(-c3nccnc3Nc3cc(NC(=O)c4cc(C(F)(F)F)ccn4)ccc3C)ncnc2[nH]1 [IA-122, N-(3-(3-(8-methoxy-9H-purin-6-yl)pyrazin-2-ylamino)-4-methylphenyl)-4-(trifluoromethyl)picolinamide] | 20 to 100
Cc1ccc(NC(=O)c2cc(C(F)(F)F)ccn2)cc1Nc1ncccc1-c1ncnc2[nH]c(OCCN(C)C)nc12 [IA-124, N-(3-(3-(8-(2-(dimethylamino)ethoxy)-9H-purin-6-yl)pyridin-2-ylamino)-4-methylphenyl)-4-(trifluoromethyl)picolinamide] | 20 to 100
Cc1ccc(NC(=O)c2cc(C(F)(F)F)ccn2)cc1Nc1ncccc1-c1ncnc2[nH]c(OCCO)nc12 [IA-125, N-(3-(3-(8-(2-hydroxyethoxy)-9H-purin-6-yl)pyridin-2-ylamino)-4-methylphenyl)-4-(trifluoromethyl)picolinamide] | 20 to 100
Cc1nc2c(-c3cccnc3Nc3cc(NC(=O)c4ccnc(C(C)(C)C#N)c4)ccc3C)ncnc2[nH]1 [IA-127, 2-(2-cyanopropan-2-yl)-N-(4-methyl-3-((3-(8-methyl-9H-purin-6-yl)pyridin-2-yl)amino)phenyl)isonicotinamide] | < 20
Cc1nc2c(-c3cccnc3Nc3cc(NC(=O)c4cc(C(F)(F)F)c(F)cn4)ccc3C)ncnc2[nH]1 [IA-128, 5-fluoro-N-(4-methyl-3-((3-(8-methyl-9H-purin-6-yl)pyridin-2-yl)amino)phenyl)-4-(trifluoromethyl)picolinamide] | < 20
Cc1nc2c(-c3cccnc3Nc3cc(NC(=O)c4cc(C(F)(F)F)c(OCCO)cn4)ccc3C)ncnc2[nH]1 [IA-129, 5-(2-hydroxyethoxy)-N-(4-methyl-3-((3-(8-methyl-9H-purin-6-yl)pyridin-2-yl)amino)phenyl)-4-(trifluoromethyl)picolinamide] | < 20
Cc1nc2c(-c3cccnc3Nc3cc(NC(=O)c4cc(C(O)C(F)(F)F)ccn4)ccc3C)ncnc2[nH]1 (stereo not shown) [IA-130, N-(4-methyl-3-((3-(8-methyl-9H-purin-6-yl)pyridin-2-yl)amino)phenyl)-4-(2,2,2-trifluoro-1-hydroxyethyl)picolinamide] | < 20
Cc1ccc(NC(=O)CC2CCCNCC2)cc1Nc1ncccc1-c1ncnc2[nH]cnc12 (stereo not shown) [IA-131, N-(3-(3-(9H-purin-6-yl)pyridin-2-ylamino)-4-methylphenyl)-2-(azepan-4-yl)acetamide] | ≥ 500
Cc1ccc(NC(=O)CC2CCCN(C)CC2)cc1Nc1ncccc1-c1ncnc2[nH]cnc12 (stereo not shown) [IA-132, N-(3-(3-(9H-purin-6-yl)pyridin-2-ylamino)-4-methylphenyl)-2-(1-methylazepan-4-yl)acetamide] | ≥ 500
Cc1ccc(NC(=O)CN2CCCOCC2)cc1Nc1ncccc1-c1ncnc2[nH]cnc12 [IA-133, N-(3-((3-(9H-purin-6-yl)pyridin-2-yl)amino)-4-methylphenyl)-2-(1,4-oxazepan-4-yl)acetamide] | ≥ 500

Next, values leading:

GI50 [nM] | SMILES
20 to 100 | COc1cnc(C(=O)Nc2ccc(C)c(Nc3ncccc3-c3ncnc4[nH]cnc34)c2)cc1C(F)(F)F [IA-100, N-(3-(3-(9H-purin-6-yl)pyridin-2-ylamino)-4-methylphenyl)-5-methoxy-4-(trifluoromethyl)picolinamide]
< 20 | Cc1ccc(NC(=O)c2nccc(C(F)(F)F)c2Cl)cc1Nc1ncccc1-c1ncnc2[nH]cnc12 [IA-106, N-(3-(3-(9H-purin-6-yl)pyridin-2-ylamino)-4-methylphenyl)-3-chloro-4-(trifluoromethyl)picolinamide]
< 20 | Cc1ccc(NC(=O)c2cc(C(F)(F)F)c(C)cn2)cc1Nc1ncccc1-c1ncnc2[nH]cnc12 [IA-114, N-(3-((3-(9H-purin-6-yl)pyridin-2-yl)amino)-4-methylphenyl)-5-methyl-4-(trifluoromethyl)picolinamide]
< 20 | Cc1ccc(NC(=O)c2cc(C(F)(F)F)c(F)cn2)cc1Nc1ncccc1-c1ncnc2[nH]cnc12 [IA-115, N-(3-((3-(9H-purin-6-yl)pyridin-2-yl)amino)-4-methylphenyl)-5-fluoro-4-(trifluoromethyl)picolinamide]
< 20 | Cc1ccc(NC(=O)c2nccc(C(F)(F)F)c2F)cc1Nc1ncccc1-c1ncnc2[nH]cnc12 [IA-116, N-(3-((3-(9H-purin-6-yl)pyridin-2-yl)amino)-4-methylphenyl)-3-fluoro-4-(trifluoromethyl)picolinamide]
100 to 500 | Cc1ccc(NC(=O)c2cc(C(F)(F)F)ccn2)cc1Nc1nccc(F)c1-c1ncnc2[nH]cnc12 [IA-117, N-(3-(4-fluoro-3-(9H-purin-6-yl)pyridin-2-ylamino)-4-methylphenyl)-4-(trifluoromethyl)picolinamide]
20 to 100 | Cc1ccc(NC(=O)c2cc(C(F)(F)F)ccn2)cc1Nc1ncc(F)cc1-c1ncnc2[nH]cnc12 [IA-118, N-(3-((5-fluoro-3-(9H-purin-6-yl)pyridin-2-yl)amino)-4-methylphenyl)-4-(trifluoromethyl)picolinamide]
100 to 500 | Cc1cc(C)c(Nc2ncccc2-c2ncnc3[nH]cnc23)cc1NC(=O)c1cc(C(F)(F)F)ccn1 [IA-119, N-(5-((3-(9H-purin-6-yl)pyridin-2-yl)amino)-2,4-dimethylphenyl)-4-(trifluoromethyl)picolinamide]
20 to 100 | Cc1ccc(NC(=O)c2cc(C(F)(F)F)ccn2)cc1Nc1nccnc1-c1ncnc2[nH]cnc12 [IA-120, N-(3-(3-(9H-purin-6-yl)pyrazin-2-ylamino)-4-methylphenyl)-4-(trifluoromethyl)picolinamide]
≥ 500 | Cc1ccc(NC(=O)c2cc(C(F)(F)F)ccn2)cc1Nc1nnccc1-c1ncnc2[nH]cnc12 [IA-121, N-(3-((4-(9H-purin-6-yl)pyridazin-3-yl)amino)-4-methylphenyl)-4-(trifluoromethyl)picolinamide]
20 to 100 | COc1nc2c(-c3cccnc3Nc3cc(NC(=O)c4cc(C(F)(F)F)ccn4)ccc3C)ncnc2[nH]1 [IA-123, N-(3-(3-(8-methoxy-9H-purin-6-yl)pyridin-2-ylamino)-4-methylphenyl)-4-(trifluoromethyl)picolinamide]
< 20 | Cc1nc2c(-c3cccnc3Nc3cc(NC(=O)c4cc(C(F)(F)F)ccn4)ccc3C)ncnc2[nH]1 [IA-126, N-(4-methyl-3-((3-(8-methyl-9H-purin-6-yl)pyridin-2-yl)amino)phenyl)-4-(trifluoromethyl)picolinamide]
